Results published in US20210008095A1, “METHODS FOR TREATING MUSCULAR DYSTROPHY” (Sarepta Therapeutics, Inc., priority 2015, published 2021).
“And” between values parts separate entries of the source, which are not always exact repeats. Equal values may be shown once.

Tests used:
Format in all cases: in vivo, human
[1] = tested on: patients with Duchenne muscular dystrophy (DMD) amenable to exon 51 skipping; test: Loss of ambulation / ambulatory status incl. Kaplan-Meier analysis, Study 201/202
Procedure: Study 201 (Study no. 4658-us-201; ClinicalTrials.gov Identifier: NCT01396239) was a single-site, randomized, double-blind, placebo-controlled, multiple-dose efficacy, safety and tolerability trial of eteplirsen. Twelve patients with DMD were randomized to one of three groups: eteplirsen 30 mg/kg/week (Cohort 1); eteplirsen 50 mg/kg/week (Cohort 2); or placebo/delayed eteplirsen (Cohort 3). All patients received weekly intravenous eteplirsen or placebo/delayed eteplirsen dosing. Placebo-treated patients crossed over to weekly eteplirsen 30 (n=2) or 50 mg/kg (n=2) at week 25. Efficacy and safety were assessed at scheduled visits, and an independent Data Safety Monitoring Board ensured the welfare of all patients. All patients had bicep biopsies at baseline. Follow-up biopsies were performed in the opposite arm (biceps) at week 12 for the 50 mg/kg group and two placebo-treated patients and at week 24 for the 30 mg/kg group and two placebo-treated patients.
(§1) Patients continued weekly dosing with 30 or 50 mg/kg eteplirsen under Study 202 (Study no. 4658-us-202; ClinicalTrials.gov Identifier: NCT01540409) a long-term, open-label extension study. All efficacy assessments continued to be performed during Study 202, including a third biopsy (in the left deltoid muscle) in all patients at week 48. A voluntary fourth biopsy ( 11/12 patients) was performed at week 180. Monitoring of adverse events continued throughout the study.
To compare the results of the eteplirsen cohort to a matched external control cohort, the Italian Telethon (n=97) and Leuven Neuromuscular Research Center (NMRC) (n=89) registries were used to compile control data. These registries were chosen because the following data was available: longitudinal 6MWT data in exon 51 amenable patients, longitudinal 6MWT data up to 36 months, and genetic mutation data. There was also an equivalent standard of care, including steroids, in these registries. Patient data was selected based on the following factors: baseline 6MTW and steroid treatment, age of 7 years or older, and amenable to exon 51 skipping (FIG. 2)
(§2) The 6MWT was administered using the protocol established for patients with DMD by McDonald, et al. (Muscle Nerve, 2010; 42:966-74; Muscle Nerve, 2010; 41:500-10 herein incorporated by reference), except there was no use of the StepWatch actimetry device. Exploratory functional outcomes included the North Star Ambulatory Assessment, quantitative muscle testing, the 9-Hole Peg Test, pulmonary function testing (PFT), timed function tests, and assessment of quality of life.

dystrophin = test: Dystrophin positive fibers by immunohistochemistry (MANDYS106) in muscle biopsy
Procedure: as §1
Dystrophin expression levels were determined in both the eteplirsen treated cohort and matched external control cohort, based on MANDYS106 [a gift from Glen Morris, MDA Monoclonal Antibody Library], a highly sensitive marker for dystrophin used in prior studies of eteplirsen and other exon skipping candidates. Three 10 μm frozen sections, separated by at least 200 μm, were stained with MANDYS106, followed by a secondary antibody (Alexa Fluor 594 goat antimouse antibody). Four pathologists reviewed the tissue blinded and reported percent dystrophin-positive fibers, which were calculated by dividing the number of positive fibers by the total fibers counted. As normal muscle samples have 100% dystrophin-positive fibers, percent dystrophin-positive fibers is expressed as a percentage of normal.

[2] = Safety and tolerability monitoring, Study 201/202
Procedure: Safety was assessed by evaluation of adverse events, vital signs, physical examinations, electrocardiograms, echocardiograms, and clinical laboratory testing. In addition, kidney function was monitored via regular assessments of serum cystatin C and urine cystatin C and KIM-1.

[3] = tested on: patients with Duchenne muscular dystrophy (DMD) amenable to exon 51 skipping; test: Ability to rise independently from supine / rise time
From the text: In some embodiments, muscle function in a DMD patient may be assessed for ability to rise from a supine position without external assistance (independently). In some embodiments, the assessment can include whether or not the subject has the ability to rise from a supine position. In some embodiments, the assessment includes the time (e.g., in seconds) it takes for the patient to rise from a supine position without external assistance. Such measurements are well known to the skilled artisan and are described in, e.g., Bushby and Connor (2011) Clin Investig (Lond.) 1(9):1217-1235 and Henricson et al. (2013) Muscle Nerve 48(1):55-67, the disclosures of each of which are incorporated herein by reference in their entirety. In some embodiments, a patient treated by any of the methods described herein has lost the ability to rise independently from a supine position prior to beginning treatment with eteplirsen. In some embodiments, the patient lost the ability to rise independently from a supine position at least one (e.g., at least two, three, four, five, six, seven, eight, nine, 10, 11, 12, 16, 18, 20, 24, or more) month(s) prior to beginning treatment with eteplirsen. In some embodiments, a patient treated by any of the methods described herein loses the ability to rise independently from a supine position while being treated with eteplirsen. In some embodiments, the patient loses the ability to rise independently from a supine position at least one (e.g., at least two, three, four, five, six, seven, eight, nine, 10, 11, 12, 16, 18, 20, 24, 30, or 36 or more) month(s) after commencing treatment with eteplirsen.
as §2

[4] = individual ambulatory subjects (n=10), year of loss of ability in brackets

RNA, [P-deoxy-P-(dimethylamino)](2′,3′-dideoxy-2′,3′-imino-2′,3′-seco)(2′a→5′)(C-m5U-C-C-A-A-C-A-m5U-C-A-A-G-G-A-A-G-A-m5U-G-G-C-A-m5U-m5U-m5U-C-m5U-A-G), 5′-[P-[4-[[2-[2-(2-hydroxyethoxy)ethoxy]ethoxy]carbonyl]-1-piperazinyl]-N,N-dimethylphosphonamidate] (antisense CTCCAACATCAAGGAAGATGGCATTTCTAG; all phosphorodiamidate morpholino (PMO); 5' piperazinyl triethylene glycol carbamate tail on phosphonamidate, further chemistry not fully specified) [eteplirsen]
Kaplan-Meier estimate for loss of ambulation rate ([1]; 4 years / 216 weeks of treatment, external control 89.7%, p=0.0038 log-rank): 16.7% | patients remaining ambulant ([1]; 216 weeks (over 4 years)): 83.3% | number of patients remaining ambulant ([1]; 216 weeks of treatment): 10 out of 12 | age for loss of ambulation ([1]; Kaplan-Meier, external control median 12.8 years): could not be estimated | number of patients who lost ambulation ([1]; over 36 months): two of the twelve | cohort that lost ambulation (cumulative) ([1]; over 36 months, external control 46.2%): 16.7% | number of patients who lost ambulation ([1]; over 216 weeks): two of the twelve | DMD patients remaining ambulant ([1]; week 192, 30 mg/kg once per week): 83% | number of patients ambulant ([1]; week 192 of treatment): 10/12 | ambulation in patients who lost the ability to rise from supine ([1]; year 4 of treatment): remained ambulant at year 4 | patients with dystrophin positive fibers as measured by immunohistochemistry (dystrophin; 180 weeks): 10 of 11 | dystrophin positive fibers compared to matched external control patients (dystrophin; after 180 weeks, four blinded pathologists, p<0.001): significantly higher amount of dystrophin positive fibers | drug-related serious adverse events ([2]; over 2300 doses, 192 week treatment period): no drug-related serious adverse events | chemistries: hematologic, renal, coagulation or liver functions ([2]; through 216 weeks of treatment): no clinically significant changes in hematologic, renal, coagulation or liver functions | electrocardiograms, echocardiograms and PFTs ([2]; through 216 weeks of treatment): remained stable | physical examination and vital signs ([2]; through 216 weeks of treatment): no clinically significant changes | tolerability: adverse events, discontinuations, missed doses ([2]; through 216 weeks of treatment): well tolerated with no treatment-related adverse events, serious adverse events, discontinuations or missed doses | number of patients who lost the ability to rise without external support ([3]; from years 1 to 3): four | Year 3 Rise Time [3, 4]: 24.1 s and 17.9 s and 13.1 s and 8.9 s and 8.2 s and 6.2 s | Year 3 Rise Time(s) [3, 4]: Unable to rise
